Measured values from publication PMC12508063, “Chloroindazole based estrogen receptor β ligands with favorable pharmacokinetics promote functional remyelination and visual recovery” (Scientific Reports, 2025).
Several values for one entry are separate records, joined by “and”; a condition that tells them apart may be missing. Equal entries are not always repeated. Structures can show the parent of a compound that is named as a salt.

How the values were obtained:
CYP3A4 = CYP3A4 (Homo sapiens, UniProt P08684); assay: in vitro
CYP2C9 = CYP2C9 (Homo sapiens, UniProt P11712); assay: CYP inhibition; conditions: human
ERα = molecular target: T1, ERα (Homo sapiens, UniProt P03372); assay: ER reporter gene assay in HEK 293 T cells (ER-luciferase reporter); type: cell-based; conditions: for Reporter gene assay raw data, ERa: 4 replicate columns
T1 construct: expressed in transfected cells; host or cells: HEK 293 T cells
T1 sequence (P03372 1-595): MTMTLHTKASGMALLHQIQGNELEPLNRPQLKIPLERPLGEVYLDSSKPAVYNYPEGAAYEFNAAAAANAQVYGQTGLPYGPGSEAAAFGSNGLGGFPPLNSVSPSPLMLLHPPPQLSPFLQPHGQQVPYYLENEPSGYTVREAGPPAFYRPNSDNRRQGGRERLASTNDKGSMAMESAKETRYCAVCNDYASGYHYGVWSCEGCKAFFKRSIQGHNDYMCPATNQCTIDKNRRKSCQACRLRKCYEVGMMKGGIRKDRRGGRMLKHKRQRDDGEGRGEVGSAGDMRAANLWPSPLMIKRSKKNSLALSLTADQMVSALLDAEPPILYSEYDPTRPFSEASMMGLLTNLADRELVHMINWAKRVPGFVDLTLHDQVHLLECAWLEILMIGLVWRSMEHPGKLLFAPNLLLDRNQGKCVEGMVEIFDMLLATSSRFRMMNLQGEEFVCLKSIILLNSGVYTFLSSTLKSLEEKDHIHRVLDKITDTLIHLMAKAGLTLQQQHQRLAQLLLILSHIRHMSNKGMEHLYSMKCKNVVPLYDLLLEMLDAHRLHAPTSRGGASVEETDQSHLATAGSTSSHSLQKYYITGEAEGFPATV

ERβ = molecular target: T2, ERβ (Homo sapiens, UniProt Q92731); assay: as above; type: cell-based; conditions: for Reporter gene assay raw data, ERb: ERb data block (head r19), 4 replicate columns; for ERb reporter gene assay raw data (response): four replicate columns per compound
T2 construct: expressed in transfected cells; host or cells: HEK 293 T cells

CYP2D6 = CYP2D6 (Homo sapiens, UniProt P10635); assay: CYP inhibition; conditions: human, probe Dextromethorphan
[1] = test system: co-cultures of primary cortical neurons and OPCs; assay: Axon myelination in co-cultures of primary cortical neurons and OPCs; type: cell-based, mouse; conditions: K102, K110 10 nM; Clemastine, Bazedoxifene 500 nM; 5 days
[2] = Stability in human plasma; type: in vitro ADME
[3] = Plasma protein binding (human)
[4] = Plasma protein binding (mouse)

T2 sequence (Q92731 whole entry, species assumed): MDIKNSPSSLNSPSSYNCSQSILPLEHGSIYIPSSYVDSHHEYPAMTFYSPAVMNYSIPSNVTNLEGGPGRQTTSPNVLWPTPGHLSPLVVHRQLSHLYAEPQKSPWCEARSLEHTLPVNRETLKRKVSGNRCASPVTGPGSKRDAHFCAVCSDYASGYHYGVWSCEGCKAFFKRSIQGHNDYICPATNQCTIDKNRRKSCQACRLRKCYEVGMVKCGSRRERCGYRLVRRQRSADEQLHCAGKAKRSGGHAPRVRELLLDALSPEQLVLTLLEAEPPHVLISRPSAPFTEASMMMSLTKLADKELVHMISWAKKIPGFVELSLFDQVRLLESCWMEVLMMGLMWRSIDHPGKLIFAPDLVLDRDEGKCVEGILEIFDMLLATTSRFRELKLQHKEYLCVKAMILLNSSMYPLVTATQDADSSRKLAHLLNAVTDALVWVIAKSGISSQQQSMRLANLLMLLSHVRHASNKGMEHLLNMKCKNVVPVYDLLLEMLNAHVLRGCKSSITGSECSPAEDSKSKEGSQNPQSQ
Sequence of CYP3A4 (P08684 whole entry): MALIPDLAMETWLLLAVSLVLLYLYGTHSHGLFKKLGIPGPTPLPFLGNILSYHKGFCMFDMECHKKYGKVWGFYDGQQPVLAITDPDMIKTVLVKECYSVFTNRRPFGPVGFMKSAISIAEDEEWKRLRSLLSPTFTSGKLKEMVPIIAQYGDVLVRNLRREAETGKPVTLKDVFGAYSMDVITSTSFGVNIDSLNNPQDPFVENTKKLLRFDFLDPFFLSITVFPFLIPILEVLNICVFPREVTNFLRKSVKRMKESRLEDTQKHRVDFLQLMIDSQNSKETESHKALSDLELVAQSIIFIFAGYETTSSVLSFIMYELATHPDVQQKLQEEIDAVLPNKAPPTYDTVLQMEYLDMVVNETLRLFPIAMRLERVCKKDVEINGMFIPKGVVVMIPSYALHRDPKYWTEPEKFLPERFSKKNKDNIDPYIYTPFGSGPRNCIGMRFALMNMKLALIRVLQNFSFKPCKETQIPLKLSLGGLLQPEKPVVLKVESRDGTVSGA
Sequence of CYP2C9 (P11712 whole entry): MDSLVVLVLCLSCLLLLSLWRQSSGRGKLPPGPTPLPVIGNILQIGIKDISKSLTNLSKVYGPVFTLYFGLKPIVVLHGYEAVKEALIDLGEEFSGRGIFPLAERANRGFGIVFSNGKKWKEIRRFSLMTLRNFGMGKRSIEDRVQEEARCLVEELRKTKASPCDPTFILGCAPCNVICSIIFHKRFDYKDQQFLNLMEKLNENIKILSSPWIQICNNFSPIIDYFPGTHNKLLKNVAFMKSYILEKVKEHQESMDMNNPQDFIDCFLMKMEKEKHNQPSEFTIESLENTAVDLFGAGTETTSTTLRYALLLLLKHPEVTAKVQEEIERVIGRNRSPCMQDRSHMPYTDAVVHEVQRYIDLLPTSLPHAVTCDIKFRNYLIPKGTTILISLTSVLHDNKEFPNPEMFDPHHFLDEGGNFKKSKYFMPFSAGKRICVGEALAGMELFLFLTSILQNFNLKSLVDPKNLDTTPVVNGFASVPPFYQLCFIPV
Sequence of CYP2D6 (P10635 whole entry): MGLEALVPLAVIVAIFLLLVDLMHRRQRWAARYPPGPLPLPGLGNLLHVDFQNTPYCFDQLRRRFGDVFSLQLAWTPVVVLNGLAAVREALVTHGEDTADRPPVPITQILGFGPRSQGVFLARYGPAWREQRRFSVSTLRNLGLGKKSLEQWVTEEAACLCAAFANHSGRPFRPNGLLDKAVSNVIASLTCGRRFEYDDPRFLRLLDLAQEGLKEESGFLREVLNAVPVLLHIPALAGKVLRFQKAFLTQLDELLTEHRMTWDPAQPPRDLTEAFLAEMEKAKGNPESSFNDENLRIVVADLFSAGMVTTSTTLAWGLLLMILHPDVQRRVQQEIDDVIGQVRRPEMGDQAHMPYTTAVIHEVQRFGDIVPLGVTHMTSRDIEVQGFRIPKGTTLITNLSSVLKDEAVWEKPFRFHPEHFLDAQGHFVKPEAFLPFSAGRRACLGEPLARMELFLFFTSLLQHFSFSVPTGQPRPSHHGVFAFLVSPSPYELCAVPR

CC(=O)N1CCN(c2ccc(OCC3COC(Cn4ccnc4)(c4ccc(Cl)cc4Cl)O3)cc2)CC1 (stereo not shown) [Ketoconazole]
inhibition at 10 µM (CYP3A4; CYP Inhibition Percentage CYP3A4-M): 95.5%
inhibition at 10 µM (CYP3A4; CYP Inhibition Percentage CYP3A4-T): 92.5%

Nc1ccc(S(=O)(=O)Nc2ccnn2-c2ccccc2)cc1 [Sulfaphenazole]
inhibition at 10 µM (CYP2C9): 93.9%

CCCc1c(-c2ccc(O)cc2)nn(-c2ccc(O)cc2)c1-c1ccc(O)cc1 [PPT, propylpyrazoletriol]
Reporter gene assay raw data, ERa (ERα; Log M -6, first ERa data block (head r2)): 86.0824 and 79.2296 and 78.3082 and 79.1573
Reporter gene assay raw data, ERa (ERα; Log M -6, second ERa data block (head r34)): 87.9608 and 88.617 and 93.8527 and 87.2476
Reporter gene assay raw data, ERa (ERα; Log M -6.47756, first ERa data block (head r2)): 90.8624 and 88.5783 and 89.3316 and 78.0129
Reporter gene assay raw data, ERa (ERα; Log M -6.47756, second ERa data block (head r34)): 88.252 and 85.7322 and 87.7049 and 87.7177
Reporter gene assay raw data, ERa (ERα; Log M -6.95468, first ERa data block (head r2)): 87.1769 and 84.3715 and 90.3303 and 89.4496
Reporter gene assay raw data, ERa (ERα; Log M -6.95468, second ERa data block (head r34)): 95.811 and 91.5253 and 94.4371 and 90.1172
Reporter gene assay raw data, ERa (ERα; Log M -7.4318, first ERa data block (head r2)): 90.4114 and 87.987 and 94.8392 and 90.7082
Reporter gene assay raw data, ERa (ERα; Log M -7.4318, second ERa data block (head r34)): 106.107 and 97.2934 and 83.08 and 92.8748
Reporter gene assay raw data, ERa (ERα; Log M -7.91009, first ERa data block (head r2)): 85.6554 and 95.12 and 98.5558 and 94.3071
Reporter gene assay raw data, ERa (ERα; Log M -7.91009, second ERa data block (head r34)): 95.0594 and 87.5842 and 88.9618 and 84.8971
Reporter gene assay raw data, ERa (ERα; Log M -8.3851, first ERa data block (head r2)): 92.5458 and 88.4315 and 85.0988 and 85.7612
Reporter gene assay raw data, ERa (ERα; Log M -8.3851, second ERa data block (head r34)): 94.3547 and 89.3596 and 80.8197 and 80.3933
Reporter gene assay raw data, ERa (ERα; Log M -8.86328, first ERa data block (head r2)): 84.8361 and 86.8057 and 82.3746 and 77.2465
Reporter gene assay raw data, ERa (ERα; Log M -8.86328, second ERa data block (head r34)): 85.9296 and 87.1693 and 76.3853 and 76.3319
Reporter gene assay raw data, ERa (ERα; Log M -9.34008, first ERa data block (head r2)): 74.7989 and 75.6545 and 77.292 and 82.2909
Reporter gene assay raw data, ERa (ERα; Log M -9.34008, second ERa data block (head r34)): 84.5588 and 86.4988 and 76.9768 and 80.3165
Reporter gene assay raw data, ERa (ERα; Log M -9.81816, first ERa data block (head r2)): 61.8395 and 65.1501 and 66.4827 and 65.905
Reporter gene assay raw data, ERa (ERα; Log M -9.81816, second ERa data block (head r34)): 75.5533 and 73.0444 and 68.3421 and 69.495
Reporter gene assay raw data, ERa (ERα; Log M -10.2941, first ERa data block (head r2)): 40.0072 and 40.9439 and 38.9576 and 38.1761
Reporter gene assay raw data, ERa (ERα; Log M -10.2941, second ERa data block (head r34)): 46.869 and 47.8915 and 37.7547 and 39.1778
Reporter gene assay raw data, ERa (ERα; Log M -10.7721, first ERa data block (head r2)): 19.4359 and 14.8698 and 17.3697 and 15.2983
Reporter gene assay raw data, ERa (ERα; Log M -10.7721, second ERa data block (head r34)): 13.881 and 18.514 and 18.2618 and 16.0774
Reporter gene assay raw data, ERa (ERα; Log M -11.248, first ERa data block (head r2)): 4.705 and 3.999 and 3.885 and 4.444
Reporter gene assay raw data, ERa (ERα; Log M -11.248, second ERa data block (head r34)): 6.356 and 4.574 and 4.487 and 4.951
ERa reporter gene assay raw data (response) (ERα; Log M -13, four replicate columns per compound): 0.8253 and -0.8253 and 1.478 and -1.478
Reporter gene assay raw data, ERb (ERβ; Log M -6): 19.5014 and 20.0849 and 23.8882 and 22.6897
ERb reporter gene assay raw data (response) (ERβ; Log M -6): 21.485 and 20.205 and 17.3019 and 20.855
Reporter gene assay raw data, ERb (ERβ; Log M -6.47756): 16.4485 and 15.2513 and 19.8755 and 17.389
ERb reporter gene assay raw data (response) (ERβ; Log M -6.47756): 18.9594 and 20.0074 and 15.2776 and 15.7954
Reporter gene assay raw data, ERb (ERβ; Log M -6.95468): 10.4714 and 10.5487 and 14.4972 and 14.256
ERb reporter gene assay raw data (response) (ERβ; Log M -6.95468): 18.4622 and 14.9797 and 13.6041 and 14.8139
Reporter gene assay raw data, ERb (ERβ; Log M -7.4318): 5.476 and 4.22 and 5.578 and 6.583
ERb reporter gene assay raw data (response) (ERβ; Log M -7.4318): 10.9473 and 9.898 and 9.008 and 8.195
Reporter gene assay raw data, ERb (ERβ; Log M -7.91009): 1.07 and -0.6207 and 3.16 and 0.9592
ERb reporter gene assay raw data (response) (ERβ; Log M -7.91009): 6.169 and 4.563 and 6.678 and 4.2739
Reporter gene assay raw data, ERb (ERβ; Log M -8.3851): 0.7593 and -1.643 and 0.4997 and -2.03
ERb reporter gene assay raw data (response) (ERβ; Log M -8.3851): 3.945 and 3.96 and 6.88 and 1.445
Reporter gene assay raw data, ERb (ERβ; Log M -8.86328): -0.4322 and -1.466 and 2.716 and -1.501
ERb reporter gene assay raw data (response) (ERβ; Log M -8.86328): 5.736 and 3.2685 and 3.216 and 2.057
Reporter gene assay raw data, ERb (ERβ; Log M -9.34008): -0.1098 and -1.507 and 1.45 and -0.6901
ERb reporter gene assay raw data (response) (ERβ; Log M -9.34008): 3.967 and 2.823 and 2.379 and 1.871
Reporter gene assay raw data, ERb (ERβ; Log M -9.81816): -0.5451 and -0.7163 and 0.1509 and -1.511
ERb reporter gene assay raw data (response) (ERβ; Log M -9.81816): 1.577 and 2.9115 and 0.9432 and -0.07211
Reporter gene assay raw data, ERb (ERβ; Log M -10.2941): -1.084 and -0.1568 and -0.6795 and -0.3425
ERb reporter gene assay raw data (response) (ERβ; Log M -10.2941): 1.736 and 0.3306 and 0.3765 and -0.321
Reporter gene assay raw data, ERb (ERβ; Log M -10.7721): -1.226 and -1.1541 and -1.046 and -1.761
ERb reporter gene assay raw data (response) (ERβ; Log M -10.7721): -0.8597 and 0.03179 and -1.5452 and -1.38
Reporter gene assay raw data, ERb (ERβ; Log M -11.248): -0.3317 and 0.5222 and -1.104 and -1.502
ERb reporter gene assay raw data (response) (ERβ; Log M -11.248): -0.3358 and 0.6884 and 0.7035 and 0.7906
ERb reporter gene assay raw data (response) (ERβ; Log M -13): 0.5566 and -0.5566 and 0.8119 and -0.8119

C=C[C@H]1C[N@@]2CC[C@H]1C[C@@H]2[C@@H](O)c1ccnc2ccc(OC)cc12 [Quinidine]
inhibition at 10 µM (CYP2D6): 92.7%

CN1CCC[C@@H]1CCO[C@](C)(c1ccccc1)c1ccc(Cl)cc1 [Clemastine, Clemastine fumarate]
OL processes wrapping axons [1]: significant increase

CC(=O)CC(c1ccccc1)c1c(O)c2ccccc2oc1=O (stereo not shown) [Wafarine]
% Remaining at 6 hr in Human Plasma [2]: 111.24%
Protein Binding (% Bound) Human [3]: 98.68%
Protein Binding (% Bound) Mouse [4]: 93.11%
